These results are taken from patent publication US9676714B2, “Sulfonylindole derivatives and method for preparing the same” (Daewoong Pharmaceutical Co., Ltd., priority 2013, dated 2017).

Counter-ions that a name gives are not always drawn.

In the assay the target is T1, proton pump (H+/K+-ATPase) (Sus scrofa, UniProt P19156).
T1 construct: Gastric vesicles were prepared from hog stomach via centrifugal separation; from tissue; host or cells: hog stomach (gastric vesicles, method of Rabon et al. 1988)
T1 sequence (P19156 whole entry): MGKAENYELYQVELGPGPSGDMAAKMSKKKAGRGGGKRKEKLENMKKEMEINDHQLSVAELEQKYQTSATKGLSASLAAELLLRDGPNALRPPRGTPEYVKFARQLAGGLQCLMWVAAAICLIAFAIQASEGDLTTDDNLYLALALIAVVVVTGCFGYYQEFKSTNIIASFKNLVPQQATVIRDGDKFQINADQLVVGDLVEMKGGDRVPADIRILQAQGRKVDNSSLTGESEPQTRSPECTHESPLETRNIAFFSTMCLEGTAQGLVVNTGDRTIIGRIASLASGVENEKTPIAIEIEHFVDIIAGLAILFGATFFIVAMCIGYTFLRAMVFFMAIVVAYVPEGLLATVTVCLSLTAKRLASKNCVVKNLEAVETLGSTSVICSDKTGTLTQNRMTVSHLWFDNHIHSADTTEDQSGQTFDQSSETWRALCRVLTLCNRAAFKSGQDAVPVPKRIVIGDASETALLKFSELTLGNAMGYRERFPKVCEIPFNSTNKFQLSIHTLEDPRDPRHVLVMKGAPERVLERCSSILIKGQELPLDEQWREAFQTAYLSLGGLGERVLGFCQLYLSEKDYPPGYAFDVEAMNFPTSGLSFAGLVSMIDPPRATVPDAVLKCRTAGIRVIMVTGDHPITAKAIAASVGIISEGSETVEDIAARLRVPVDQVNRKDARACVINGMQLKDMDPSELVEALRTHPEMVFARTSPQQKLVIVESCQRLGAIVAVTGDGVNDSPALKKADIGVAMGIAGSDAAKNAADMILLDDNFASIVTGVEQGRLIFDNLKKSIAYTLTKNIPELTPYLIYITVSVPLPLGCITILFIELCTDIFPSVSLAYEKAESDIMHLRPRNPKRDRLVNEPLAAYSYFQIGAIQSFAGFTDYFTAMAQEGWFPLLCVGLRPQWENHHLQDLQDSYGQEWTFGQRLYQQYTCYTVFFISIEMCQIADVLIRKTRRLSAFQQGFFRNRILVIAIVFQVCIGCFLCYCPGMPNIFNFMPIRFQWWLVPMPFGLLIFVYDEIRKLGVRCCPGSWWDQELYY
T1 sequence (P18434 whole entry partner): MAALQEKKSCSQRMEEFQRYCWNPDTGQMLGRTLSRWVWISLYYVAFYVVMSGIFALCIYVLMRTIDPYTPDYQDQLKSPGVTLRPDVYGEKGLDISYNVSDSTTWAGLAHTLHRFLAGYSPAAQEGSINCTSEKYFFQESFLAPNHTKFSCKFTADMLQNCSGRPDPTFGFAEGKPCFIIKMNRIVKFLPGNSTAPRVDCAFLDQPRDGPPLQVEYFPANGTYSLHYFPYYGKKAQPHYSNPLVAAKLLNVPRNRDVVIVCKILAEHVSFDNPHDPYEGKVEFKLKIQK
The assay is described as follows: Measurement of inhibitory effects on proton pump (H+/K+-ATPase) activities. Type of assay: biochemical. Conditions: hog gastric vesicles, K+-specific H+/K+-ATPase activity, Tris-HCl buffer pH 7.4, 37° C. for 40 minutes, malachite green Pi readout. Summed up: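 Hog gastric vesicles in 60 mmol/l Tris-HCl pH 7.4 with 0.5% DMSO were treated with compounds at room temperature; reaction was started with 10 μl of 10 mmol/l ATP stock. Released Pi was read at 570 nm, K+-specific activity taken as the ±K+ difference. IC50 from 4-parameter logistic fit.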
Compound `CNCc1cn(S(=O)(=O)c2cccc(OC(F)(F)F)c2)c2cc(Nc3ccc(C)c(F)c3F)ccc12` [Example 203, N-(2,3-difluoro-4-methylphenyl)-3-((methylamino)methyl)-1-((3-(trifluoromethoxy)phenyl)sulfonyl)-1H-indol-6-amine hydrochloride] displayed an IC50 of 450 nM.

Turning to `CNCc1cn(S(=O)(=O)c2cccnc2)c2cc(Nc3c(C)ccnc3Cl)ccc12` [Example 127, N-(2-chloro-4-methylpyridin-3-yl)-3-((methylamino)methyl)-1-(pyridin-3-ylsulfonyl)-1H-indol-6-amine hydrochloride], the IC50 came out at 640 nM.

For the compound `CNCc1cn(S(=O)(=O)c2cccnc2)c2cc(Oc3ccccc3[N+](=O)[O-])ccc12` [Example 310, N-methyl-1-(6-(2-nitrophenoxy)-1-(pyridin-3-ylsulfonyl)-1H-indol-3-yl)methanamine hydrochloride], the midpoint of inhibition, the IC50, lay at 330 nM.

For the compound `CNCc1cn(S(=O)(=O)c2cccc(OC(F)F)c2)c2cc(Cc3ccc(C)c(F)c3F)ccc12` [Example 290, 1-(6-(2,3-difluoro-4-methylbenzyl)-1-((3-(difluoromethoxy)phenyl)sulfonyl)-1H-indol-3-yl)-N-methylmethanamine], the IC50 was found to be 930 nM. Against the preceding compound, the IC50 is about 2.8-fold higher.

`CNCc1cn(S(=O)(=O)c2cccnc2)c2cc(Nc3ccc(C(F)(F)F)cc3C(F)(F)F)ccc12` [Example 35, N-(2,4-Bis(trifluoromethyl)phenyl)-3-((methylamino)methyl)-1-(pyridin-3-ylsulfonyl)-1H-indol-6-amine hydrochloride] registered an IC50 of 1630 nM.

`CNCc1cn(S(=O)(=O)c2cccc(OC)c2)c2cc(Nc3ccc(OC(F)(F)F)cc3C)ccc12` [Example 168, 1-((3-methoxyphenyl)sulfonyl)-N-(2-methyl-4-(trifluoromethoxy)phenyl)-3-((methylamino)methyl)-1H-indol-6-amine hydrochloride]: the midpoint of inhibition, the IC50, lay at 790 nM.

Consider `CNCc1cn(S(=O)(=O)c2cncc(F)c2)c2cc(Nc3ccc(C)cc3Cl)cnc12` [Example 350, N-(2-chloro-4-methylphenyl)-1-((5-fluoropyridin-3-yl)sulfonyl)-3-((methylamino)methyl)-1H-pyrrolo[3,2-b]pyridin-6-amine hydrochloride], for which the concentration for half-maximal inhibition (IC50) came to 260 nM. This IC50 is about 3-fold lower than that of the compound before.

Compound `CNCc1cn(S(=O)(=O)c2cccnc2)c2cc(Nc3ccc(C#N)cc3Cl)ccc12` [Example 39, 3-chloro-4-((3-((methylamino)methyl)-1-(pyridin-3-ylsulfonyl)-1H-indol-6-yl)amino)benzonitrile hydrochloride] yielded an IC50 of 130 nM. Compared with the last compound, the IC50 is about 2-fold lower.

In turn, `CNCc1cn(S(=O)(=O)c2cccnc2)c2cc(Nc3ccc(Br)cc3Cl)ccc12` [Example 44, N-(4-bromo-2-chlorophenyl)-3-((methylamino)methyl)-1-(pyridin-3-ylsulfonyl)-1H-indol-6-amine hydrochloride] returned an IC50 of 270 nM. Against the preceding compound, the IC50 is about 2.1-fold higher.

For `CNCc1cn(S(=O)(=O)c2cccc(C(F)(F)F)c2)c2cc(Cc3ccc(C)c(F)c3F)ccc12` [Example 288, 1-(6-(2,3-difluoro-4-methylbenzyl)-1-((3-(trifluoromethyl)phenyl)sulfonyl)-1H-indol-3-yl)-N-methylmethanamine], the IC50 was 1450 nM.

Compound `CNCc1cn(S(=O)(=O)c2cccc(Cl)c2)c2cc(Nc3ccc(C(F)(F)F)cc3Cl)ccc12` [Example 152, N-(2-chloro-4-(trifluoromethyl)phenyl)-1-((3-chlorophenyl)sulfonyl)-3-((methylamino)methyl)-1H-indol-6-amine hydrochloride] showed an IC50 of 350 nM.

Compound `CNCc1cn(S(=O)(=O)c2cccc(F)c2)c2cc(Nc3ccc(C)nc3Cl)ncc12` [Example 358, N-(2-chloro-6-methylpyridin-3-yl)-1-((3-fluorophenyl)sulfonyl)-3-((methylamino)methyl)-1H-pyrrolo[3,2-c]pyridin-6-amine hydrochloride] had an IC50 of 1270 nM.

In turn, `CNCc1cn(S(=O)(=O)c2cccnc2)c2cc(Cc3ccccc3F)ccc12` [Example 269, 1-(6-(2-fluorobenzyl)-1-(pyridin-3-ylsulfonyl)-1H-indol-3-yl)-N-methylmethanamine hydrochloride] showed an IC50 of 770 nM.

On to `CNCc1cn(S(=O)(=O)c2cccnc2)c2cc(Nc3ccc(C(F)(F)F)cc3C)ccc12` [Example 32, N-(2-methyl-4-(trifluoromethyl)phenyl)-3-((methylamino)methyl)-1-(pyridin-3-ylsulfonyl)-1H-indol-6-amine hydrochloride], for which the IC50 stood at 810 nM.

The compound `CNCc1cn(S(=O)(=O)c2cccnc2)c2cc(Nc3ccc(Cl)nc3C(F)(F)F)ccc12` [Example 121, N-(6-chloro-2-(trifluoromethyl)pyridin-3-yl)-3-((methylamino)methyl)-1-(pyridin-3-ylsulfonyl)-1H-indol-6-amine hydrochloride] had an IC50 of 440 nM.

For `CNCc1cn(S(=O)(=O)c2cccnc2)c2cc(Nc3c(F)cc(F)cc3F)ccc12` [Example 82, 3-((methylamino)methyl)-1-(pyridin-3-ylsulfonyl)-N-(2,4,6-trifluorophenyl)-1H-indol-6-amine hydrochloride], the IC50 amounted to 450 nM.

Take `CNCc1cn(S(=O)(=O)c2cccnc2)c2cc(-c3ccnc(F)c3)ccc12` [Example 256, 1-(6-(2-fluoropyridin-4-yl)-1-(pyridin-3-ylsulfonyl)-1H-indol-3-yl)-N-methylmethanamine hydrochloride]: the midpoint of inhibition, the IC50, lay at 20000 nM.

With `CNCc1cn(S(=O)(=O)c2ccc(OC)cc2)c2cc(Cc3ccc(C)cc3Cl)ccc12` [Example 307, 1-(6-(2-chloro-4-methylbenzyl)-1-((4-methoxyphenyl)sulfonyl)-1H-indol-3-yl)-N-methylmethanamine], the IC50 worked out at 1210 nM.

In turn, `CNCc1cn(S(=O)(=O)c2ccccc2C)c2cc(Nc3ccc(C)cc3F)ccc12` [Example 223, N-(2-fluoro-4-methylphenyl)-3-((methylamino)methyl)-1-(o-tolylsulfonyl)-1H-indol-6-amine hydrochloride] registered an IC50 of 1290 nM. This IC50 and that of the compound before are within 1.5-fold of each other.

For `CNCc1cn(S(=O)(=O)c2cncc(F)c2)c2cc(Nc3ccc(F)cc3C)cnc12` [Example 351, N-(4-fluoro-2-methylphenyl)-1-((5-fluoropyridin-3-yl)sulfonyl)-3-((methylamino)methyl)-1H-pyrrolo[3,2-b]pyridin-6-amine hydrochloride], the IC50 came out at 350 nM.

In turn, `COC(=O)c1cn(S(=O)(=O)c2ccc(Cl)nc2)c2cc(-c3ccc(F)nc3)ccc12` [Example 337, methyl 1-((6-chloropyridin-3-yl)sulfonyl)-6-(6-fluoropyridin-3-yl)-1H-indol-3-carboxylate] yielded an IC50 of 3150 nM.

In turn, `CNCc1cn(S(=O)(=O)c2cccnc2)c2cc(Nc3ccc(Br)cc3OC(F)(F)F)ccc12` [Example 46, N-(4-bromo-2-(trifluoromethoxy)phenyl)-3-((methylamino)methyl)-1-(pyridin-3-ylsulfonyl)-1H-indol-6-amine hydrochloride] yielded an IC50 of 2350 nM.

Take `CNCc1cn(S(=O)(=O)c2ccc(Cl)cc2Cl)c2cc(Nc3ccc(C)cc3F)ccc12` [Example 235, 1-((2,4-dichlorophenyl)sulfonyl)-N-(2-fluoro-4-methylphenyl)-3-((methylamino)methyl)-1H-indol-6-amine hydrochloride]: inhibition was half-maximal at 2890 nM (IC50).

`CNCc1cn(S(=O)(=O)c2cccnc2)c2cc(Nc3ncccc3F)ccc12` [Example 99, N-(3-fluoropyridin-2-yl)-3-((methylamino)methyl)-1-(pyridin-3-ylsulfonyl)-1H-indol-6-amine hydrochloride]: 1380 nM corresponded to half-maximal inhibition (IC50).

In turn, `CNCc1cn(S(=O)(=O)c2cccnc2)c2cc(Nc3cccc(Cl)c3)ccc12` [Example 7, N-(3-chlorophenyl)-3-((methylamino)methyl)-1-(pyridin-3-ylsulfonyl)-1H-indol-6-amine hydrochloride] yielded an IC50 of 590 nM.

`CNCc1cn(S(=O)(=O)c2cccc(OC(F)(F)F)c2)c2cc(Nc3ccc(Cl)cc3F)ccc12` [Example 197, N-(4-chloro-2-fluorophenyl)-3-((methylamino)methyl)-1-((3-(trifluoromethoxy)phenyl)sulfonyl)-1H-indol-6-amine hydrochloride] had an IC50 of 850 nM.

The compound `CNCc1cn(S(=O)(=O)c2cccc(C(F)(F)F)c2)c2cc(Nc3ccc(OC(F)(F)F)cc3OC)ccc12` [Example 190, N-(2-methoxy-4-(trifluoromethoxy)phenyl)-3-((methylamino)methyl)-1-((3-(trifluoromethyl)phenyl)sulfonyl)-1H-indol-6-amine hydrochloride] had a half-maximal inhibitory concentration (IC50) of 440 nM.

With `CNCc1cn(S(=O)(=O)c2cccc(C(F)(F)F)c2)c2cc(Nc3ccc(OC)cc3F)ccc12` [Example 188, N-(2-fluoro-4-methoxyphenyl)-3-((methylamino)methyl)-1-((3-(trifluoromethyl)phenyl)sulfonyl)-1H-indol-6-amine hydrochloride], half-maximal inhibition (IC50) was put at 400 nM.

Take `CNCc1cn(S(=O)(=O)c2ccc(OC(F)F)cc2)c2cc(Nc3ccc(C)cc3Cl)ccc12` [Example 220, N-(2-chloro-4-methylphenyl)-1-((4-(difluoromethoxy)phenyl)sulfonyl)-3-((methylamino)methyl)-1H-indol-6-amine hydrochloride]: it took 290 nM to reach half-maximal inhibition (IC50).

In turn, `CCc1cc(Br)ccc1Nc1ccc2c(CNC)cn(S(=O)(=O)c3cccnc3)c2c1` [Example 43, N-(4-bromo-2-ethylphenyl)-3-((methylamino)methyl)-1-(pyridin-3-ylsulfonyl)-1H-indol-6-amine hydrochloride] showed a 50% inhibitory concentration (IC50) of 3020 nM.

With `CNCc1cn(S(=O)(=O)c2cccnc2)c2cc(Nc3ccc(F)c(F)c3)ccc12` [Example 62, N-(3,4-difluorophenyl)-3-((methylamino)methyl)-1-(pyridin-3-ylsulfonyl)-1H-indol-6-amine hydrochloride], the IC50 was found to be 930 nM.

Broadly, the IC50 is the concentration that gives 50% inhibition.
